{"source": "patent US9079936B2", "about": "“Derivatives of APF and methods of use” (University of Maryland, Baltimore, priority 2007, dated 2015)", "key": {"[1]": {"test_system": "bladder epithelial cells from IC/PBS patients", "experiment": "IC/PBS cell proliferation (3H-thymidine incorporation)", "type": "cell-based, human", "conditions": "for effect on IC cell proliferation: 0.25 uM, 9, 16, 23 and 30 day treatment (Example 12)", "description": "(§1) IC/PBS cells were incubated with varying concentrations of GalGalNAc-TV(D-proline)AAVVVA (SEQ ID NO:11), wherein such glycosylated peptide is SEQ ID NO:30). Cell proliferation was determined by ^3H-thymidine incorporation; gene expression by quantitative RT-PCR; specific protein expression by Western blot analysis; tight junction formation by confocal immunofluorescence microscopy; and paracellular permeability by ^14C-mannitol and ^3H-inulin flux between confluent cells on Transwell plates. Significance of the difference in mean values between groups was determined by an analysis of variance for each assay.\nStudy of the effect of APF proline on IC cell proliferation (as measured by thymidine incorporation) following 9, 16, 23, and 30 day treatment with 0.25 uM of the agent.\nas §1, with “a derivative shown to inhibit APF activity in normal bladder cells—GalGalNAc-TV-(D-proline)-AAVVVA” for “GalGalNAc-TV(D-proline)AAVVVA”, “NO: 11),” for “NO:11),”, “RT-PCR;” for “RT-PCR; specific protein expression by Western blot analysis;”, “^14H-inulin” for “^3H-inulin”\nIC/PBS cells produce APF and as a result have a profound decrease in cell proliferation. […] Cells were treated with 1 nM D-proline APF twice weekly, and thymidine incorporation was determined at 9, 16, 23 and 30 days.\n(§2) Cell proliferation was measured by ^3H-thymidine incorporation into explanted normal human bladder epithelial cells, as previously described (Keay et al., 2000; Keay et al., 2001; Keay et al., 2004; Keay et al., 2003; Saitoh et al., 2001). Significant inhibition of ^3H-thymidine incorporation was defined as a mean decrease in counts per minute of greater than 2 standard deviations from the mean of control cells for each plate."}, "[2]": {"test_system": "tight junction proteins in IC/PBS cells", "experiment": "Immunofluorescence confocal microscopy of tight junction proteins", "type": "cell-based, human", "conditions": "IC/PBS cell explants treated for 9 days", "description": "For immunofluorescence, cells were fixed using ethanol/acetone (1:1) for 15 minutes at room temperature, washed 3 times with PBS and incubated with fluorescein isothiocyanate (FITC) labeled mouse monoclonal anti-ZO-1 (5 μg/ml); or unlabeled mouse monoclonal anti-occludin (5 μg/ml) or anti-claudin 4 (3 μg/ml); or unlabeled rabbit polyclonal anti-claudin 1 (3 μg/ml), anti-claudin 8 (8 μg/ml), or anti-claudin 12 (5 μg/ml) antibodies (all from Zymed, South San Francisco, Calif.) diluted in PBS for 2 hours at 37 C. Cells incubated with unlabeled mouse monoclonal primary antibodies were then washed 3 times with PBS and further incubated with FITC-labeled secondary goat anti-mouse IgG antibody (Zymed) diluted in PBS, while cells incubated with unlabeled rabbit polyclonal primary antibodies were washed and further incubated for 2 hours at 37 C with goat anti-rabbit IgG (Zymed) diluted in PBS. Following an additional 5 washes with PBS, the cells were examined using an LSM510 confocal laser scanning microscope (Carl Zeiss, Oberkochen, Germany). Negative controls for the method included cells incubated without primary and secondary antibodies as well as cells incubated with secondary antibody alone."}, "IC/PBS cell monolayers": {"test_system": "IC/PBS cell monolayers", "experiment": "Paracellular permeability assay (14C-mannitol and 3H-inulin flux, Transwell)", "type": "cell-based, human", "conditions": "IC/PBS cells, 16 or 30 days treatment", "description": "Flux assays were performed using 12-mm Transwell culture plates (Corning Incorporated, Corning, N.Y.), as previously described (Keay et al., 2000). Cells were plated at 4×10^5 cells/cm^2 on the insert and grown in DMEM-F12 medium containing 10% heat-inactivated FBS, 1% antibiotic solution, 1% L-glutamine, 0.25 units/ml insulin (all from Sigma, St. Louis, Mo.), and 5 ng/ml hEGF (R & D Systems, Minneapolis, Minn.) to establish tight monolayers. On day 2, the medium was changed to MEM (GIBCO/Invitrogen) containing 1% antibiotic/antimycotic solution and 1% L-glutamine (Sigma).\nTwo different membrane impermeable molecules, [^14C]-mannitol (molecular weight: 184 Daltons) and [3H]-inulin (molecular weight: 5,200 Daltons), served as paracellular tracers. At the beginning of the flux assay, both sides of the bathing wells of Transwell filters were replaced with fresh medium containing either 5 mM unlabeled mannitol or 0.5 mM unlabeled inulin. Each tracer was added at a final concentration of 3.6 nM for [^14C]-mannitol and 0.36 nM for [^3H]-inulin to the apical bathing wells. The basal bathing well contained the same medium as the apical compartment but without tracers. Flux assays were performed at 37° C.; basal medium was collected at 0.5-6 hrs after addition of [^14C]-mannitol or [^3H]-inulin, and the amount of radioactivity determined using a Beckman LS 5000 scintillation counter. Results were expressed as percentage of total counts for each tracer.\n(§3) For the permeability assay, the percentage of total counts in the basal medium was determined in four experiments (using different IC/PBS cell donors), and expressed as mean±standard deviation. Crossover point analysis was performed for qRT-PCR data, and expression of each gene was quantified relative to β-actin; this value was expressed as mean±standard error of the mean for duplicate runs performed on two separate occasions. ^3H-thymidine incorporation was determined in triplicate on two separate occasions, and the CPM expressed as mean±standard deviation."}, "[3]": {"test_system": "normal human bladder epithelial cells", "experiment": "3H-thymidine incorporation into explanted normal human bladder epithelial cells", "type": "cell-based", "description": "Cell proliferation was measured by ^3H-thymidine incorporation into explanted normal human bladder epithelial cells, as previously described (Keay et al., 2001; Keay et al., 2000; Keay et al., 2003a; Keay et al., 2003b; Keay et al., 1996). Briefly, purified native or synthetic APF (or the appropriate mock preparation) was diluted in serum-free MEM (containing only glutamine and antibiotics/antimycotics) and applied to the cells; cell controls received serum-free MEM alone. Cells were then incubated at 37° C. in a 5% CO2 atmosphere for 48 hours. The cells were then labeled with 1 μCi/well ^3H-thymidine for 4 hours, trypsinized, insoluble cell contents harvested and methanol-fixed onto glass fiber filter paper, and the amount of radioactivity incorporated determined. […]\nThe present example concerns exemplary comprehensive structure-activity relationship (SAR) studies on the peptide portion of antiproliferative factor (APF). […] Antiproliferative activity of each derivative was determined by inhibition of ^3H-thymidine incorporation in primary normal human bladder epithelial cells.\n^3H-Thymidine Incorporation. […] The cell contents harvested and methanol-fixed onto glass fiber filter paper, and the amount of radioactivity incorporated determined. […]"}, "[4]": {"test_system": "tight junction protein gene expression in IC/PBS cells", "experiment": "qRT-PCR for tight junction gene expression", "type": "cell-based, human", "conditions": "16 and 30 day treatment, relative to β-actin", "description": "Total RNA was extracted from IC/PBS and normal control epithelial cell explants using the RNEasy Plus Mini Kit (Qiagen) according to the manufacturer's protocol. Quantitative real time RT-PCR for tight junction gene expression was performed using Quantitect Primers (Qiagen), SYBR Green RT-PCR kit reagents (Qiagen), and a Roche 480 Light-Cycler. Samples were tested in triplicate runs, and specific mRNA levels quantified and compared to mRNA levels for β-actin using LightCycler 480 real-time PCR analysis software (version 1.5).\nas §3"}, "[5]": {"test_system": "APF activity in normal bladder epithelial cells", "experiment": "Inhibition of APF antiproliferative activity in APF-treated normal bladder cells (3H-thymidine incorporation)", "type": "cell-based, human", "conditions": "pretreatment with derivative, then active synthetic APF (as-APF), IC/PBS and/or normal bladder cells", "description": "as §1\nas §1, with “a derivative shown to inhibit APF activity in normal bladder cells—GalGalNAc-TV-(D-proline)-AAVVVA” for “GalGalNAc-TV(D-proline)AAVVVA”, “NO: 11),” for “NO:11),”, “RT-PCR;” for “RT-PCR; specific protein expression by Western blot analysis;”, “^14H-inulin” for “^3H-inulin”\nas §2"}, "[6]": {"conditions": "listed as GalGalNAc-TV(D-proline)AAVVVA"}, "[7]": {"conditions": "listed as GalGalNAc-TV-(D-proline)-AAVVVA"}}, "note": "“Also recorded” adds a separate entry of the source.", "data": [{"substance": "GalGalNAc-TV(D-proline)AAVVVA [D-proline APF]", "values": [{"measurement": "stimulation of IC/PBS cell proliferation", "setting": "[1]; 1 nM twice weekly, thymidine incorporation at 9, 16, 23 and 30 days (Example 14)", "result": "stimulated IC/PBS cell proliferation by Day 16"}, {"measurement": "effect on IC cell proliferation", "setting": "[1]", "result": "significantly stimulated at both time points"}, {"measurement": "effect on IC cell proliferation", "setting": "[1]; listed as APF proline", "result": "Optimal stimulation of IC cell proliferation was observed up to the level of normal bladder cell proliferation"}, {"measurement": "tight junction protein expression and localization", "setting": "[2]", "result": "also increased"}, {"measurement": "paracellular permeability (14C-mannitol, 3H-inulin)", "setting": "IC/PBS cell monolayers", "result": "normalized; also recorded: significantly decreased paracellular permeability of both tracer molecules"}, {"measurement": "paracellular permeability (14C-mannitol, 3H-inulin)", "setting": "IC/PBS cell monolayers; [6]", "result": "decrease permeability of IC/PBS cells"}, {"measurement": "paracellular permeability (14C-mannitol, 3H-inulin)", "setting": "IC/PBS cell monolayers; listed as GalGalNAc-TV-(D-Proline)-AAVVVA", "result": "significantly decrease permeability of IC/PBS cells"}, {"measurement": "paracellular permeability (14C-mannitol, 3H-inulin)", "setting": "IC/PBS cell monolayers; [7]", "result": "normalize IC/PBS cell paracellular permeability"}, {"measurement": "antiproliferative activity", "setting": "[3]; 3H-thymidine incorporation, normal bladder epithelial cells", "result": "did not have any intrinsic antiproliferative activity"}, {"measurement": "antiproliferative activity normalized to as-APF", "setting": "[3]; inactive = no significant activity at <25 μM (cut-off limit of the assay)", "result": "inactive"}, {"measurement": "tight junction protein mRNA expression", "setting": "[4]", "result": "stimulation of tight junction protein expression; also recorded: stimulate mRNA expression for ZO-1, occludin, and specific claudin (1, 4, 8, and 12)"}, {"measurement": "tight junction protein mRNA expression", "setting": "[4]; [6]", "result": "significantly increase zonula occludens-1 and claudin 1, 4 and 8 expression"}, {"measurement": "tight junction protein mRNA expression", "setting": "[4]; [7]", "result": "significantly increased ZO-1, occludin, and claudin 1, 4, 8, and 12 expression"}, {"measurement": "blocking of APF antiproliferative activity", "setting": "[5]", "result": "inhibited this activity in nanomolar concentrations in a dose-dependent manner"}, {"measurement": "blocking of APF antiproliferative activity", "setting": "[5]; [6]", "result": "blocked APF activity"}, {"measurement": "blocking of APF antiproliferative activity", "setting": "[5]; [7]", "result": "blocked APF antiproliferative activity; also recorded: blocks APF's inhibitory effects on cell proliferation"}]}]}
